Data on five compounds can be found in ChEMBL document CHEMBL1142539, “Double edge redox-implications for the interaction between endogenous thiols and copper ions: In vitro studies” (Bioorg Med Chem, 2008).

A short description of data set [1]: Antioxidant activity assessed as reducing capacity of Iodine solution at 0.25 mM after 120 mins in presence of Cu2++. The format is functional.
The nature of data set [2]: Antioxidant activity assessed as ABTS radical scavenging activity at 4 uM after 30 mins in presence of Cu2++. The format is functional.
The nature of data set [3]: Induction of ascorbic acid oxidation preincubated for 30 mins in presence of Cu2++. The format is physicochemical. Set-up: concentration or dose not given beside the values. The following applies: 0.5 h.
Data set [4] can be described thus: Antioxidant activity assessed as reducing capacity of DTNB at 20 uM after 30 mins in presence of Cu2++. It is filed as functional. Set-up: scale not given: the % may be the effect or the level left.
A short description of data set [5]: Induction of ascorbic acid oxidation preincubated for 300 mins in presence of Cu2++. It is filed as physicochemical. Set-up: concentration or dose not given beside the values. As to conditions: 5 h.
Data set [6] in a line: Effect on CU2+-mediated superoxide-dependent cytochrome c reduction at 10 to 30 uM. It is filed as physicochemical.
A short description of data set [7]: Induction of ascorbic acid oxidation preincubated for 60 mins in presence of Cu2++. The format is physicochemical. Set-up: concentration or dose not given beside the values. As to conditions: 1 h.
In data set [8] the test system is Radical scavenging activity. Description: Antioxidant activity assessed as DPPH radical scavenging activity after 40 mins in absence of Cu2+. It is filed as functional.
The nature of data set [9]: Antioxidant activity assessed as reducing capacity of DTNB at 20 uM after 60 mins in presence of Cu2++. The format is functional.
A short description of data set [10]: Antioxidant activity assessed as reducing capacity of Iodine solution at 0.25mM after 30 mins in presence of Cu2++. It is filed as functional. Set-up: scale not given: the % may be the effect or the level left.
Data set [11] is described as follows: Induction of ascorbic acid oxidation preincubated for 3 mins in presence of Cu2++. As to conditions: 0.05 h. The arrangement: concentration or dose not given beside the values. It is filed as physicochemical.
Data set [12] in a line: Antioxidant activity assessed as ABTS radical scavenging activity at 4 uM after 3 mins in presence of Cu2+. It is filed as functional.
Data set [13] is described as follows: Antioxidant activity assessed as ABTS radical scavenging activity after 30 mins in absence of Cu2+. It is filed as functional.
The nature of data set [14]: Effect on CU2+-mediated superoxide-dependent lucigenin reduction by chemiluminescence assay at 10 to 30 uM. The format is physicochemical.
The test system of data set [15] is Radical scavenging activity. Briefly: Antioxidant activity assessed as DPPH radical scavenging activity at 36 uM after 30 mins in presence of Cu2++. The format is functional.
Data set [16] in a line: Antioxidant activity assessed as reducing capacity of Iodine solution at 0.25 mM after 60 mins in presence of Cu2++. The format is functional.
Data set [17] deals with Radical scavenging activity. Briefly: Antioxidant activity assessed as DPPH radical scavenging activity at 36 uM after 3 mins in presence of Cu2++. It is filed as functional.

Activity calls are given as the source filed them. No cut-off for these calls is given here.

Regarding `N[C@@H](CS)C(=O)NCC(=O)O`, in data set [1], the outcome was inactive. Further, the Activity was 33% in [2]; 92.28% in data set [3]; 0% in data set [4]; 94.33% in data set [5]; “Active” in [6]; 94.31% in data set [7]. Moreover, the Activity entry in [8] is “Dose-dependent effect”; in [10], 20%; in data set [11] it was 79.8%; in data set [13], “Dose-dependent effect”; in [14] it was “Active”; in data set [15], 88%. For the same compound, the outcome in [9], in [12], in [16] and in [17] was Active.
As to `N[C@@H](CCC(=O)N[C@@H](CS)C(=O)O)C(=O)O`, the Activity in [2] was 29%; in data set [3] it was 87.4%; in [4] it was 26%; in data set [5], 97.6%; in data set [6], “Active”; in [7] it was 89.6%. For the same compound, the Activity entry is “Dose-dependent effect” in data set [8]; 24% in [10]; 81.4% in data set [11]; “Dose-dependent effect” in [13]; 54% in data set [15]. Further, the outcome in data set [12] and in [17] was Active.
Consider `N[C@@H](CS)C(=O)O` [CYSTEINE], for which the Activity in [2] is 44%; in [3] it was 77.34%; in [4], 24%; in data set [5] it was 80.36%; in [6] it was “Active”; in data set [7], 80.35%. The Activity entry is “Dose-dependent effect” in [8]; 23% in [10]; 74.35% in data set [11]; “Dose-dependent effect” in data set [13]; 92% in [15]. The result in data set [12] and in [17] was Active.
Consider `N[C@@H](CCC(=O)N[C@@H](CS)C(=O)NCC(=O)O)C(=O)O` [GLUTATHIONE], for which the Activity in data set [2] was 55%; in data set [3], 83.2%; in [4], 36%; in data set [5] it was 85.4%; in data set [6], “Active”; in [7], 84.2%. Further, the Activity result is “Dose-dependent effect” in data set [8]; 31% in data set [10]; 81.3% in [11]; “Dose-dependent effect” in [13]; “Active” in data set [14]; 76% in data set [15]. The outcome in [12] and in [17] was Active.
As for `N[C@@H](CCS)C(=O)O` [L-HOMOCYSTEINE], the Activity in [2] is 31%; in [3], 84.1%; in data set [4] it was 40%; in data set [5] it was 85.3%; in [6], “Active”; in data set [7] it was 86.1%. In addition, the Activity entry in data set [8] is “Dose-dependent effect”; in data set [10] it was 30%; in [11] it was 81.1%; in [13] it was “Dose-dependent effect”; in data set [14] it was “Active”; in data set [15], 72%. The result in data set [12] and in data set [17] was Active.
